{"source": "paper PMC12505902", "about": "“Inhibitors of trehalose-6-phosphate synthase activity in fungal pathogens compromise thermal tolerance pathways” (mBio, 2025)", "test_system": "C. glabrata (CBS138)", "assay": "MIC dose-response assay in YPD", "assay_type": "cell-based", "protocol": "Fig 4 4456dh inhibits the growth of Candida and Cryptococcus species. […] 4456dh was administered at the concentrations indicated. Cultures were grown in YPD at the listed temperatures for 48 hours for Candida species and 72 hours for Cryptococcus species. Experimental temperatures reflect the temperatures at which the fungi experience heat stress. Left: relative growth of treated samples was calculated by averaging technical triplicates and normalizing the OD600 of each treated well to the average OD600 of the untreated WT controls, after the absorbance due to the compound was subtracted. The MIC80 values, calculated based on the OD600 values, are indicated in the white text on each heat map. Right: representative spot assays show the ability of cells to grow after exposure to 4456dh and indicate fungicidal activity of 4456dh. […]\nFurthermore, there was significant fungicidal activity of 4456dh on C. glabrata in concentrations starting at approximately 7.8 µM (Fig. 4B).\n77 and 5 mM imidazole. The protein was eluted with increasing amounts of imidazole in the wash\n78 buffer. The fractions containing 6xHis-CnTps1 were pooled, reduced to 5 mL and purified further\n79 using S200 size exclusion column chromatography (HiLoad 26/600 Superdex 200pg, Cytiva) […]\n82 determined by SDS-PAGE analysis, were pooled and concentrated to 1 mg/mL for downstream […]\n93 The data were acquired with MO.Control 1.5.3 (NanoTemper Technologies GmbH). Recorded\n94 data were analyzed with MO.Affinity Analysis 2.2.7 (NanoTemper Technologies GmbH). […]\n100 2X Glo-melt dye. Thermal denaturation was measured using an RT-PCR thermocycler (BioRad) […]\n102 determined by identifying the inflection point of the derivative data. […]\n104 The catalytic activity of C. albicans Tps1 and C. neoformans Tps1 was measured via a continuous […]\n110 bottomed 96-well microtiter plates and the decrease in absorbance at 340 nm during the initial\n111 reaction rate was recorded using a plate reader (Tecan). The decrease in absorbance was\n112 analyzed for the first 200s of the kinetic reaction. […]", "note": "Read-outs that look alike come from different tables or passages of the source.", "data": [{"smiles": "Cn1cc(-c2csc(NC(=O)Cc3ccccn3)n2)cn1", "note": "[Compound 4456dh]", "values": [{"measurement": "MIC80", "setting": "30°C, YPD", "value": "no MIC or fungicidal activity was detected"}, {"measurement": "MIC80", "setting": "Nakaseomyces glabratus, CBS138, 42°C, YPD, 48 hours, read-out: MIC80", "value": 7.8, "unit": "µM"}, {"measurement": "MIC80", "setting": "Nakaseomyces glabratus, CBS138, Supplemental Table 5, This publication, read-out: MIC80", "value": 3.1, "unit": "µg/mL"}]}]}
